Assay results published in patent publication US20040038855A1 (priority 1999, published 2004).
Structures can show the parent of a compound that is named as a salt. Where two headings read alike, the source gives them in different places.

Key:
human NPY1 receptor = target: T1, human NPY1 receptor (Homo sapiens, UniProt P25929); test: Binding affinity at the human NPY1 receptor
T1 construct: expressed in transfected cells
T1 sequence (P25929 1-384): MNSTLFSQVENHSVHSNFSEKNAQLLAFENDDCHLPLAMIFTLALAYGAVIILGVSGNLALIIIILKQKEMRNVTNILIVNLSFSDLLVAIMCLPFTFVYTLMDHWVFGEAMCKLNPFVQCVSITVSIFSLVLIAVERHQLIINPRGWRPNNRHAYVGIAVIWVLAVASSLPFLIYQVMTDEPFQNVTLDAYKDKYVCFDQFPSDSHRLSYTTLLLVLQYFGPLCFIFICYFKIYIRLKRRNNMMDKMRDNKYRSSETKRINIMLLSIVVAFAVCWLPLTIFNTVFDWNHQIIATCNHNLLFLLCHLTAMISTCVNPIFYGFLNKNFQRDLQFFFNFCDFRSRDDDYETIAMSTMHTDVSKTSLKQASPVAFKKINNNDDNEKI
From the text: (§1) The design of such compounds can be optimized by determining their binding affinity at the recombinant MCH1, NPY1, NPY2, Gal1, Gal2, Gal3, and 5HT2C receptors. The methods to obtain the cDNA of the receptor, express said receptors in heterologous systems, and carry out assays to determine binding affinity are described in the following publications: human NPY1 (Larhammar et al., 1992), human NPY5 (U.S. Pat. No. 5,602,024, the disclosure of which is hereby incorporated by reference in its entirety into this application), human Gall (Habert-Ortoli et al., 1994), human Gal2 (Smith et al., 1997), human Gal3 (Smith et al., 1998), and rat 5HT2C (Julius et al., 1988). Additionally, the compounds would optimally not bind at the following receptors due to possible side effects: human H1 histamine and human H2 histamine receptors; human alpha-1A adrenergic, human alpha-1D adrenergic, human alpha-2A adrenergic, human alpha-2B adrenergic, and human alpha-2C adrenergic receptors; human dopamine D1, D2, D3, D4, and D5 receptors; the β-adrenoceptor; and the human 5HT1A, human 5HT1B, human 5HT1D, human 5HT1E, human 5HT1F, human 5HT2A, rat 5HT2C, human 5HT4, human 5HT6, and human 5HT7 receptors.

rat 5HT2C receptor = target: T2, rat 5HT2C receptor (Rattus norvegicus, UniProt P08909); test: Binding affinity at the rat 5HT2C receptor
T2 construct: expressed in transfected cells
T2 sequence (P08909 33-460): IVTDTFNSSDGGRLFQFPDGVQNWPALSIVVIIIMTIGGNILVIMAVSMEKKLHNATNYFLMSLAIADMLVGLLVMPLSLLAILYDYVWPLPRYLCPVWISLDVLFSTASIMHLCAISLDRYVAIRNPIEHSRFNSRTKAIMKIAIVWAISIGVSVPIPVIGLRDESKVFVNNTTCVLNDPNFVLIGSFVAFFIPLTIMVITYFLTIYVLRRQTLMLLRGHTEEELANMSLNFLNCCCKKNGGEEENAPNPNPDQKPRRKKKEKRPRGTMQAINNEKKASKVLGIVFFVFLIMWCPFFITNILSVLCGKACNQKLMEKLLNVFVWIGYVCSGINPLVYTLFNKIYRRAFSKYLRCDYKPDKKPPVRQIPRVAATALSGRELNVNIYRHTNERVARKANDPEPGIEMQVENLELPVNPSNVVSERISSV
How it was run: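 Affinity measured by a literature binding protocol using rat 5HT2C cDNA expressed heterologously.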

human GALR3 receptor = target: T3, human GALR3 receptor (Homo sapiens, UniProt O60755); test: Binding affinity at the human GALR3 receptor
T3 construct: expressed in transfected cells
T3 sequence (O60755 1-368): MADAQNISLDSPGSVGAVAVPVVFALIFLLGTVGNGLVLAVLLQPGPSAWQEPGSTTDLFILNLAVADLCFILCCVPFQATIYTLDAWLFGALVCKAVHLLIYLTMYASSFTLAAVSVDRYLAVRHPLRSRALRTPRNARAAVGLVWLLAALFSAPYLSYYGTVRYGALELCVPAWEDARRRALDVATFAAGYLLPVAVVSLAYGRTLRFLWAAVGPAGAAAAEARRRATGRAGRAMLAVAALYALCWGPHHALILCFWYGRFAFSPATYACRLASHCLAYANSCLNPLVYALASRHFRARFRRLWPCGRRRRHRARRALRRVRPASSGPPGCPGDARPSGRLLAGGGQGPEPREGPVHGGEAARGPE

human GALR1 receptor = target: T4, human GALR1 receptor (Homo sapiens, UniProt P47211); test: Binding affinity at the human GALR1 receptor
T4 construct: expressed in transfected cells
T4 sequence (P47211 1-349): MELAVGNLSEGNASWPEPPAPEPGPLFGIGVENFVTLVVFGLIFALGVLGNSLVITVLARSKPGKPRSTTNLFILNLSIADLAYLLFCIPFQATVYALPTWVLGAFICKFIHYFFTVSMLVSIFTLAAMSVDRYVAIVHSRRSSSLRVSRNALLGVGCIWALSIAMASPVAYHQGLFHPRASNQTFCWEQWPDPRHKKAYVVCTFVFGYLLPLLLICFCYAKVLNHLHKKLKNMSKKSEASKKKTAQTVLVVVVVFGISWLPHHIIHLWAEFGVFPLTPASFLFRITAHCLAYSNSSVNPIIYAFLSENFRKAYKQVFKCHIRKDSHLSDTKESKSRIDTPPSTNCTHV

human NPY5 receptor = target: T5, human NPY5 receptor (Homo sapiens, UniProt Q15761); test: Binding affinity at the human NPY5 receptor
T5 construct: expressed in transfected cells
T5 sequence (Q15761 1-445): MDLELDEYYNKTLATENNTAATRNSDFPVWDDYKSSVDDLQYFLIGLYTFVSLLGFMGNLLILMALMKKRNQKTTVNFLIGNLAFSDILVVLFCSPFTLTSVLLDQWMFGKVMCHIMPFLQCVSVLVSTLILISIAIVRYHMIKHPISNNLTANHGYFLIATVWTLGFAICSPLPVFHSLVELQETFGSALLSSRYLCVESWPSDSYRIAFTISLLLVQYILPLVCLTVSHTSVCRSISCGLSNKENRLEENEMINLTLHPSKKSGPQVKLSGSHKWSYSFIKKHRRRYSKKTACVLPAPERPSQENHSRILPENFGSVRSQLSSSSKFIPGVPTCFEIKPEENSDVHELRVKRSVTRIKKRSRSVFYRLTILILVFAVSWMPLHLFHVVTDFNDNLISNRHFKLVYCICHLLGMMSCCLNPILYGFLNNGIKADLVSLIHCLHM
From the text: as §1

| Compound | Ki (human NPY1 receptor; Table 3a, read-out: hMPY1 Ki) | Ki (human NPY1 receptor; Table 3b, read-out: hNPY1 Ki) | Ki (rat 5HT2C receptor; Table 3a, read-out: r5HT2C Ki) | Ki (rat 5HT2C receptor; Table 3b, read-out: r5HT2C Ki) | Ki (human GALR3 receptor; Table 3a, read-out: hGALR3 Ki) | Ki (human GALR3 receptor; Table 3b, read-out: hGALR3 Ki) | Ki (human GALR1 receptor; Table 3a, read-out: hGALR1 Ki) | Ki (human GALR1 receptor; Table 3b, read-out: hGALR1 Ki) | Ki (human NPY5 receptor; Table 3a, read-out: hNPY5 Ki) | Ki (human NPY5 receptor; Table 3b, read-out: hNPY5 Ki) | Ki (human NPY1 receptor) | Ki (human GALR3 receptor) | Ki (human GALR3 receptor; read-out: hGALR3 Ki, Table 3b) | Ki (human GALR1 receptor) | Ki (human GALR1 receptor; read-out: hGALR1 Ki, Table 3b) | Ki (human NPY5 receptor) | Ki (human NPY5 receptor; read-out: hNPY5 Ki, Table 3b) | further results |
| --- | --- | --- | --- | --- | --- | --- | --- | --- | --- | --- | --- | --- | --- | --- | --- | --- | --- | --- |
| 2-(3,4-DIFLUOROPHENYL)4,5-DIHYDROIMIDAZOLE-1-CARBOXYLIC ACID {3-[4-PHENYL-4-(4-BROMO-5-METHYLTHIOPNEN-2-YL)]-PROPYL}-AMIDE [Example 19] | > 50 µM | > 50 µM | 11.7 µM | 11.7 µM | > 50 µM | > 50 µM | > 50 µM | > 50 µM | > 50 µM | > 50 µM |  |  |  |  |  |  |  |  |
| COC(=O)C1=C(C)NC(=O)N(C(=O)NCCCN2CCC3(CC2)OCc2ccccc23)C1c1ccc2nonc2c1 (single isomer, unassigned) [Example 18, HYDROCHLORIDE] |  |  | 32.6 µM |  |  |  |  |  |  |  | > 50 µM | > 50 µM | > 50 µM | > 50 µM | > 50 µM | > 50 µM | > 50 µM | Ki (human NPY1 receptor; read-out: hNPY1 Ki, Table 3b): > 50 µM |
| CCC1=C(C(=O)O)C(c2ccc(F)c(F)c2)N(C(=O)NCCCN2CCC3(CC2)OCc2ccccc23)C(=O)N1 (single isomer, unassigned; (+)) [Example 4, (+)-1,2,3,6-TETRAHYDRO-1-1N-[4-(BENZO-4′,5′(H)FURAN)PIPERIDIN-1-YL]PROPYL}-CARBOXAMIDO-4-ETHYL-6-(3,4-DIFLUOROPHENYL)-2-OXO-PYRIMIDINE-5 CARBOXYLIC ACID HYDROCHLORIDE] | > 50 µM | > 50 µM | 34.8 µM |  | > 50 µM | > 50 µM | > 50 µM | > 50 µM | > 50 µM | > 50 µM |  |  |  |  |  |  |  |  |
| COCC1=C(C(=O)OC)C(c2ccc(F)c(F)c2)N(C(=O)NCCCN2CCC(c3cccc(NC(C)=O)c3)CC2)C(=O)N1 (single isomer, unassigned; (-)) [Example 1, (−)-1,2,3,6-TETRAHYDRO-1-{N-[4-(3,-ACETAMIDO)-PHENYLPIPERIDIN-1-YL]PROPYL}CARBOXAMIDO-4-METHOXYMETHYL-6-(3,4-DIFLUORO-PHENYL)-2-OXOPYRIMIDINE-5-CARBOXYLIC ACID METHYL ESTER] | > 50 µM | > 50 µM | > 50 µM | > 50 µM | > 50 µM | > 50 µM | > 50 µM | > 50 µM | > 50 µM | > 50 µM |  |  |  |  |  |  |  |  |
| CCCCN(CCCC)c1ccc(CN2CCC(CNC(=O)N3C(=O)NC(C)=C(C(=O)OC)C3c3ccc4nonc4c3)CC2)cc1 (stereo not drawn) [Example 6] | 6.67 µM | 6.67 µM | 25.5 µM | 25.5 µM | 21.1 µM | 21.1 µM | 11.1 µM | 11.1 µM | 4.74 µM | 4.74 µM |  |  |  |  |  |  |  |  |
| COCC1=C(C(=O)OC)[C@H](c2ccc(F)c(F)c2)N(C(=O)NCCCN2CCC(c3cccc(NC(C)=O)c3)CC2)C(=O)N1 [Example 10, (+)-1,2,3,6-TETRAHYDRO-1-{N-[4-(3,-ACETAMIDO)-PHENYLPIPERIDIN-1-YL]PROPYL}CARBOXAMIDO-4-METHOXYMETHYL-6-(3,4-DIFLUORO-PHENYL)-2-OXOPYRIMIDINE-5-CARBOXYLIC ACID METHYL ESTER] | > 50 µM | > 50 µM | 29.6 µM |  | > 50 µM | > 50 µM | > 50 µM | > 50 µM | > 50 µM | > 50 µM |  |  |  |  |  |  |  |  |
| CCCCN(CCCC)c1ccc(CNC[C@H]2CC[C@H](NC(=O)c3cccc4ccccc34)CC2)cc1 [Example 13, N1-[4-([4-(DIBUTYLAMINO)BENZYL]AMINOMETHYL)CYCLOHEXYL]-1-NAPHTH-AMIDE] | 9.6 µM | 9.6 µM | 25 µM | 25 µM | 5.98 µM | 5.98 µM | 11.3 µM | 11.3 µM | > 50 µM | > 50 µM |  |  |  |  |  |  |  |  |
| COC(=O)C1=C(C)NC(=O)N(C(=O)NCCCN2CCC3(CC2)OCc2ccccc23)C1c1ccc(F)c(F)c1 (stereo not drawn) [Example 20, 4-(3,4-DIFLUORPHENYL)-6-METHYL-2-OXO-3-{[3-(4-SPIRO[ISOBENZOFURAN-1(3H),4′-PIPERIDINE]PROPYL}-1,2,3,4-TETRAHYDROPYRIMIDINE-5-CARBOXYLIC ACID METHYL ESTER] |  |  | 15.1 µM | 15.1 µM |  |  |  |  |  |  | 27.1 µM | > 50 µM | > 50 µM | > 50 µM | > 50 µM | > 50 µM | > 50 µM | Ki (human NPY1 receptor; read-out: hMPY1 Ki, Table 3a): 27.1 µM |
| O=C(CCCN1CCC(O)(c2ccc(Cl)cc2)CC1)c1ccc(Cl)cc1 [Example 29] |  |  |  |  |  |  |  |  |  |  | > 50 µM | > 50 µM | > 50 µM | > 50 µM | > 50 µM | 46.1 µM | 46.1 µM | Ki (human NPY1 receptor; read-out: hNPY1 Ki, Table 3b): > 50 µM; Ki (rat 5HT2C receptor): > 50 µM; Ki (rat 5HT2C receptor; read-out: r5HT2C Ki, Table 3b): > 50 µM |
